Laboratory results taken from US6361595B1, “Process for the preparation of pigment compositions” (Ciba Specialty Chemicals Corporation, priority 1999, dated 2002).

Experiments:
Type in all cases: cell-based, bacteria
[1] = system: mixed culture of Gram-positive cocci, Gram-negative cocci, Gram-positive rods and Gram-negative rods; assay: Microbial contamination of dried Pigment Yellow 13 powder (Example 5 procedure) after mixing filter cake with bacterial culture; conditions: PY13, no DBS
Method: (§1) Susceptibility to microbial contamination is assessed according to the following procedure:
(§2) Microbial contamination is assessed using individual bacteria of the morphological types, Gram-positive cocci, Gram-negative cocci, Gram-positive rods and Gram-negative rods which are maintained on Nutrient Agar slopes. When required, each is cultured in Nutrient broth at 30° C. until an organism count of >10^8 colony-forming units (cfu) per milliliter (ml) is reached. The individual cultures are then mixed in equal proportions to provide a mixed culture which is then used immediately.
(§3) 10 mg of the sieved powder and one drop of sterile water are evenly spread on a Nutrient Agar plate with a glass spreader under aseptic conditions and the plate incubated at 30° C. for 48 hours, The number of bacterial colonies evident on each plate are then counted and expressed as the number of colony-forming units per gram (cfu/g).
A solution of 8.9 parts of acetic acid (100%) and 15 parts hydrochloric acid (36%) in 100 parts water are added to a solution of 63 parts of acetoacet-m-xylidide dissolved in a solution of 25.2 parts of sodium hydroxide (50%) in 676 parts of water at a temperature of 20° C. The resultant slurry is reacted with 36.9 parts of a previously tetrazotised solution of 3,3′-dichlorobenzidine, with simultaneous addition of sodium hydroxide solution (10%) to maintain pH 4.5-5.5. […] The product is then filtered and washed with water under vacuum to remove soluble salts. The filter cake (still under vacuum suction) is mixed with a bacterial culture (10 ml of culture diluted to 100 ml with water) and vacuum suction is maintained until no further liquid emanates from the filter cake. The filter cake, without further washing, is then dried and converted to a powder by grinding. The powder is then passed through a 150 micron sieve.

[2] = system: mixed culture of Gram-positive cocci, Gram-negative cocci, Gram-positive rods and Gram-negative rods; assay: Microbial contamination of dried Pigment Yellow 74 powder (Example 1 procedure) after mixing filter cake with bacterial culture
[3] = system: mixed culture of Gram-positive cocci, Gram-negative cocci, Gram-positive rods and Gram-negative rods; assay: Microbial contamination of dried Pigment Yellow 65 powder (Example 2 procedure) after mixing filter cake with bacterial culture
Method: as §1, §2, §3
(§4) 23.3 parts of acetic acid (100%) are added to a solution of 55 parts of acetoacet-o-anisidide dissolved in a solution of 25.5 parts of sodium hydroxide (47%) in 450 parts of water at a temperature of 0° C. The resultant slurry is reacted with 42.5 parts of o-nitro-p-anisidine previously diazotised with 45.4 parts of sodium nitrite (37%) and 56 parts of hydrochloric acid (36%) in the usual manner with simultaneous addition of sodium hydroxide solution (10%) to maintain pH 5.5-6.0. To the coupled slurry are then added 3 parts of dibutyl sebacate and 1 part of dimethylbenzyl-C12-14alkylammonium chloride (100% active) and the mixture is heated to a temperature of 100° C. and maintained at this temperature for one hour. The product is then filtered and washed with water under vacuum to remove soluble salts. The filter cake (still under vacuum suction) is mixed with a bacterial culture (10 ml of culture diluted to 100 ml with water) and vacuum suction is maintained until no further liquid emanates from the filter cake. The filter cake, without further washing, is then dried and converted to a powder by grinding. The powder is then passed through a 150 micron sieve.
The procedure described in Example 2 is repeated, but varying the type of biocide and amount of biocide used.
The procedure described in Example 2 is repeated, but varying the type of biocide and amount of biocide used and omitting the DBS.

[4] = system: mixed culture of Gram-positive cocci, Gram-negative cocci, Gram-positive rods and Gram-negative rods; assay: Microbial contamination of dried Pigment Yellow 74 powder (Example 1 procedure) after mixing filter cake with bacterial culture; remark: listed apart in the source
Method: as §1, §2
as §4, with “(80%)” for “(100%)”, “p-nitro-o-anisidine” for “o-nitro-p-anisidine”, “cake(still” for “cake (still”, “water)and” for “water) and”
The procedure described in Example 1 is repeated, but varying the type of biocide and amount of biocide used. The procedure for determining the extent of microbial contamination is as follows:
as §3

Substance: Benzyldimethyl-C12-14-alkylammonium chloride [KLC]
- microbial contamination, colony-forming units per gram ([1]; 0.5 parts biocide): >10^4 cfu/g
- microbial contamination, colony-forming units per gram ([1]; 1.0 parts biocide): >10^4 cfu/g
- microbial contamination, colony-forming units per gram ([1]; 3.0 parts biocide): 0 cfu/g
- microbial contamination, colony-forming units per gram ([1]; 5.0 parts biocide): 0 cfu/g
- microbial contamination, colony-forming units per gram ([2]; PY74, 0 parts DBS + 1 part KLC): 0 cfu/g
- microbial contamination, colony-forming units per gram ([2]; PY74, 1 parts DBS + 1 part KLC): 0 cfu/g
- microbial contamination, colony-forming units per gram ([2]; PY74, 2 parts DBS + 1 part KLC): 0 cfu/g
- microbial contamination, colony-forming units per gram ([3]; PY65, omitting the DBS, 0.5 parts biocide): 1.3 × 10^4 cfu/g
- microbial contamination, colony-forming units per gram ([3]; PY65, omitting the DBS, 1.0 parts biocide): 0 cfu/g
- microbial contamination, colony-forming units per gram ([3]; PY65, omitting the DBS, 3.0 parts biocide): 0 cfu/g
- microbial contamination, colony-forming units per gram ([3]; PY65, omitting the DBS, 5.0 parts biocide): 0 cfu/g
- microbial contamination, colony-forming units per gram ([3]; PY65, with 3 parts dibutyl sebacate, 0.5 parts biocide): 2.7 × 10^3 cfu/g
- microbial contamination, colony-forming units per gram ([3]; PY65, with 3 parts dibutyl sebacate, 1.0 parts biocide): 0 cfu/g
- microbial contamination, colony-forming units per gram ([3]; PY65, with 3 parts dibutyl sebacate, 3.0 parts biocide): 0 cfu/g
- microbial contamination, colony-forming units per gram ([3]; PY65, with 3 parts dibutyl sebacate, 5.0 parts biocide): 0 cfu/g
- microbial contamination, colony-forming units per gram ([4]; PY74, 3 parts DBS + 1 part KLC): 0 cfu/g
- microbial contamination, colony-forming units per gram ([4]; PY74, 3 parts dibutyl sebacate, 0.1 parts biocide, plate 30° C. 48 hours): >10^4 cfu/g
- microbial contamination, colony-forming units per gram ([4]; PY74, 3 parts dibutyl sebacate, 0.5 parts biocide, plate 30° C. 48 hours): 0 cfu/g
- microbial contamination, colony-forming units per gram ([4]; PY74, 3 parts dibutyl sebacate, 1.0 parts biocide, plate 30° C. 48 hours): 0 cfu/g
- microbial contamination, colony-forming units per gram ([4]; PY74, 3 parts dibutyl sebacate, 3.0 parts biocide, plate 30° C. 48 hours): 0 cfu/g
- microbial contamination, colony-forming units per gram ([4]; PY74, 3 parts dibutyl sebacate, 5.0 parts biocide, plate 30° C. 48 hours): 0 cfu/g
